Data: patent US20220306623A1, “PYRIDYL OR PYRIMIDYL MTOR KINASE INHIBITORS” (GLAXOSMITHKLINE INTELLECTUAL PROPERTY DEVELOPMENT LIMITED, priority 2019, published 2022)

Experiments:
[1] = system: type I collagen deposition in primary lung fibroblasts derived from human tissue; experiment: High throughput type I collagen deposition (scar-in-a-jar) high content screening assay; format: cell-based; details: Primary lung fibroblast, 72 h, human pulmonary fibroblasts, 384-well, TGF-β 1 ng/ml 72 h, total collagen area, read-out: mean pIC50, high throughput type I collagen deposition (scar-in-a-jar) (converted)
Method: Highthroughput, cellular type I collagen deposition was measured by adapting a published method; scar-in-a-jar (Chen et al., 2009) to primary lung fibroblasts derived from human tissue and combining with high content analysis to permit fluorescent quantification of collagen deposited in the extracellular matrix (ECM). The human biological samples were sourced ethically and their research use was in accordance with the terms of the informed consents.
Test compounds were dissolved in 100% DMSO to give 10 mM (stocks) and further diluted to give half log dilutions to generate an 11 point concentration response curve. 1 ul was transferred to 384-well plates (Greiner Group, Kremsmunster, Austria, Catalogue No Greine 781280r).
Human pulmonary fibroblasts were maintained in DMEM media (Gibco, Catalogue No 21969) supplemented with 4 mM L-glutamine (Gibco Catalogue No 25030-024) and 10% heat inactivated FBS (Gibco, Catalogue No 10099-141) at 37° C. in 10% CO2. Cells were harvested and resuspended at 4×10^6 cells/ml in a T175 cell culture flask (BD Falcom, Catalogue No: 353112) containing 50 mL of culture media. After 4 days 37° C. in 10% CO2, cells were harvested and seeded at 4000 cells per well ([…]) into 384-well plates (BD Falcon, Catalogue No 353962Greiner) in assay media (0.4% heat inactivated FBS, 4 mM L-glutamine). Plates were sealed with breathable seals (Sigma, Catalogue No. BEM-1). Assay plates were incubated for 72 h at 37° C. in 10% CO2.
Assay media was supplemented with 112.5 mg/ml Ficoll 70 (Sigma, Catalogue No F2878), 75 mg/ml Ficoll 400 (Sigma, Catalogue No F4375) and 50 µg/ml ascorbic acid (Sigma, Catalogue No A8960). 30 μL assay media were added to 1 l compound ([…] compound concentration in 1% DMSO). Diluted compounds (10 μL) were transferred to plates containing cells and incubated for 3 h at 37° C. in 10% CO2. Transforming growth factor (TGF)-β (R&D systems, Catalogue No 100-B/CF) was reconstituted to give 10 µg/mL (stock) and further diluted in assay media containing Ficoll and ascorbic acid (1 in 3333). TGF-β was added to cell plates (1 ng/ml final) and cells incubated for 72 h at 37° C. in 10% CO2.
Media was aspirated from cells and 30 µL/well 100% ice-cold methanol added and incubated at RT for 5 min to fix cells. Methanol was aspirated and cells washed with PBS (3×). To block and permeabilise, cells were incubated with PBS containing 1% BSA and 0.1% Triton X 100 for 20 min, followed by PBS wash (3×). Cells were incubated with mouse anti human type I collagen monoclonal antibody (Sigma, Catalogue No C2456) diluted 1:1000 in PBS for 24 h at 4° C. Cells were washed with PBS containing 0.1% Tween-20 (3×) and incubated with secondary alexa fluor 488 goat-anti-mouse antibody (Invitrogen, Catalogue No A11001, 1 in 500 in PBS) and Hoechst 33342 (Sigma, Catalogue No H21492), 1 in 1000 in PBS) for 1 h at RT, prior to washing with PBS containing 0.1% Tween (×4).
Type I collagen immunoreactivity was detected using the INCell 2000 Analyzer (GE Healthcare, INcell 2000) set to excitation and emission wavelengths for DAPI and FITC with laser focus and exposure adjusted to appropriate levels. Images were imported and analysed using Columbus software (Perkin Elmer) and computational algorithms to quantify “total collagen area” and “cell count”.
Data analysis was performed by determining 0/inhibition values for test compounds relative to the minimum (media only) and maximum responses (TGF-βstimulation) with non-linear regression analysis to determine IC50 values for test compounds.

mTOR = target: T1, mTOR (Homo sapiens, UniProt P42345); experiment: mTOR kinobeads competition-binding assay; details: HuT-78 cell lysate, bead-immobilized capturing ligand, 2 h at 4° C., mean of multiple experiments; read-out: mean pIC50, mTOR kinobeads assay (converted)
T1 construct: capturing of endogenously expressed target proteins from cell extracts by a bead-immobilized capturing ligand; endogenous in cells; host or cells: HuT-78 cells (ECACC 88041901), cell lysate
Method: The affinity of test compounds for mTOR was determined in the mTOR kinobeads assay. This is a competition-binding assay based on the capturing of endogenously expressed target proteins from cell extracts by a bead-immobilized capturing ligand in the presence of the test compound.
HuT-78 cells (European Collection of Authenticated Cell Cultures, 88041901) were cultured according to vendor's instructions. Frozen cell pellets were homogenized in 3× pellet volumes lysis buffer (50 mM Tris-HCl, 0.4% (v/v) Igepal-CA630, 5% glycerol, 150 mM NaCl, 1.5 mM MgCl2, 25 mM NaF, 1 mM sodium vanadate, 1 mM DTT, pH 7.5, supplemented with EDTA-free protease inhibitor tablet (Roche)). The sample was dispersed using a Dounce homogenizer, kept rotating for 30 min at 4° C., and centrifuged for 10 min at 20000 gat 4° C. The supernatant was centrifuged again for 1 h at 145 000 g. The protein concentration was determined by Bradford assay (BioRad), aliquots were snap frozen in liquid nitrogen and stored at −80° C.
The capturing matrices were generated by derivatizing N-hydroxysuccinimide (NHS) activated Sepharose 4 beads (GE Healthcare) with the functionalized ligands Compound A and Compound C at a ligand density of 5 mM. Remaining NHS-groups were blocked with ethanolamine.
For the mTOR kinobeads assay the matrices were combined in a 1:1 ratio and equilibrated in DP buffer (50 mM Tris-HCl (pH 7.5), 0.4% (v/v) Igepal-CA630, 5% (v/v) glycerol, 150 mM NaCl, 1.5 mM MgCl2, 25 mM NaF, 1 mM Na3VO4, 1 mM dithiothreitol). All steps of the mTOR kinobeads assay were performed at 4° C. or on ice. The cell lysate was diluted with DP buffer to a final concentration of 5 mg/ml and a final detergent concentration of 0.4% (v/v) Igepal-CA630. For the assay 250 μg cell lysate and 2.5 μl capturing matrix per well (final assay volume: 75 μl) were incubated in the presence of test compounds in a 384-well filter plate (MultiScreenHTS HV Filter Plate, 0.45 μm, MZHVNOW50, Merck Millipore). Each plate contained 16 positive (100 μM Compound B) and 16 negative (2% v/v DMSO) control wells. Compounds were tested in a concentration-response applying 1:3 or 1:4 dilution steps for in total 11 data points. DMSO concentration was 2% (v/v). After 2 h incubation on an overhead shaker (Roto-Shake Genie, Scientific Industries Inc.) at 4° C. the non-bound fraction was removed by washing the beads with DP buffer. Proteins retained on the beads were eluted in SDS sample buffer (200 mM Tris (pH 7.4), 250 mM Trizma Base, 4% (w/v) SDS, 20% (v/v) glycerol, 0.01% (w/v) bromophenol blue, 50 mM dithiothreitol) into a collection plate (384 well polypropylene microplate, V-shape, Greiner, 781 280). Eluates were spotted on nitrocellulose membranes (400 nl per spot) using an automated pin-tool liquid transfer (Biomek FX, Beckman). After drying, the membranes were rehydrated in 20% (v/v) ethanol and blocked by incubation with Odyssey blocking buffer (LICOR, 927-40000) for 1 h at room temperature. Blocked membranes were incubated overnight at 25° C. with Odyssey blocking buffer supplemented with a specific anti-mTOR antibody (Cell Signaling, 2972; 1:500) and 0.4% TWEEN-20. Then the membranes were washed in PBST buffer and incubated for 60 minutes at room temperature with the detection antibody (IRDye™ labelled antibody from LI-COR) diluted in Odyssey blocking buffer (LICOR 927-40000) containing 0.2% TWEEN-20. Then the membranes were washed with PBST and finally rinsed twice with PBS buffer to remove residual Tween-20. The membranes were then scanned with the Odyssey® Infrared Imaging System (LI-COR Biosciences). Fluorescence signals were recorded and analyzed according to the instructions of the manufacturer. Concentration response curves were computed with the software Activity Base. All data were normalized to the mean of 16 high (negative control) and 16 low (positive control) control wells on each plate. […]

SMILES | IC50 [1] [nM] | IC50 (mTOR) [nM]
CC[C@H]1COCC(=O)N1c1cc(CS(C)(=O)=O)nc(-c2ccc3[nH]c(CO)cc3n2)n1 [Example 5, (5S)-5-ethyl-4-{2-[2-(hydroxymethyl)-1H-pyrrolo[3,2-b]pyridin-5-yl]-6-(methanesulfonylmethyl)pyrimidin-4-yl}morpholin-3-one] | 20 to 3160 | ≤ 0.2
CC[C@H]1COCC(=O)N1c1cc(CS(=O)(=O)N(C)C)cc(-c2ccc3[nH]c(CNC)cc3n2)n1 [Example 7, (S)-1-(2-(3-ethyl-5-oxomorpholino)-6-(2-((methylamino)methyl)-1H-pyrrolo[3,2-b]pyridin-5-yl)pyridin-4-yl)-N,N-dimethylmethanesulfonamide] | 20 to 3160 | –
CC[C@H]1COCCN1c1cc(CS(=O)(=O)NC)nc(-c2ccc3[nH]c(C)cc3n2)n1 [Example 11, 1-{6-[(3S)-3-ethylmorpholin-4-yl]-2-{2-methyl-1H-pyrrolo[3,2-b]pyridin-5-yl}pyrimidin-4-yl}-N-methylmethanesulfonamide] | 20 | ≤ 0.2
CC[C@H]1COCCN1c1cc(CS(C)(=O)=O)nc(-c2ccc3[nH]c(C)cc3n2)n1 [Example 12, (3S)-3-ethyl-4-[6-(methanesulfonylmethyl)-2-{2-methyl-1H-pyrrolo[3,2-b]pyridin-5-yl}pyrimidin-4-yl]morpholine] | 20 to 3160 | ≤ 0.316
CC[C@H]1COCCN1c1cc(C2(S(C)(=O)=O)CCNCC2)nc(-c2ccc3[nH]c(C)cc3n2)n1 [Example 17, (3S)-3-ethyl-4-[6-(4-methanesulfonylpiperidin-4-yl)-2-{2-methyl-1H-pyrrolo[3,2-b]pyridin-5-yl}pyrimidin-4-yl]morpholine] | 20 to 3160 | –
CC[C@H]1COCCN1c1cc(C2(S(C)(=O)=O)CCN(C)CC2)cc(-c2ccc3[nH]c(C)cc3n2)n1 [Example 19, (S)-3-ethyl-4-(6-(2-methyl-1H-pyrrolo[3,2-b]pyridin-5-yl)-4-(1-methyl-4-(methylsulfonyl)piperidin-4-yl)pyridin-2-yl)morpholine] | 20 to 3160 | –
CC[C@H]1COCCN1c1cc(C2(S(C)(=O)=O)CCN(C)CC2)cc(-c2ccc3[nH]c(CO)cc3n2)n1 [Example 20, (S)-(5-(6-(3-ethylmorpholino)-4-(1-methyl-4-(methylsulfonyl)piperidin-4-yl)pyridin-2-yl)-1H-pyrrolo[3,2-b]pyridin-2-yl)methanol] | 20 to 3160 | –
CC[C@H]1COCC(=O)N1c1cc(CS(C)(=O)=O)cc(-c2ccc3[nH]c(CNC)cc3n2)n1 [Example 28, (S)-5-ethyl-4-(6-(2-((methylamino)methyl)-1H-pyrrolo[3,2-b]pyridin-5-yl)-4-((methylsulfonyl)methyl)pyridin-2-yl)morpholin-3-one] | 20 to 3160 | –
CC[C@H]1COCC(=O)N1c1cc(CS(=O)(=O)N(C)C)cc(-c2ccc3[nH]c(CO)cc3n2)n1 [Example 29, (S)-1-(2-(3-ethyl-5-oxomorpholino)-6-(2-(hydroxymethyl)-1H-pyrrolo[3,2-b]pyridin-5-yl)pyridin-4-yl)-N,Ndimethylmethanesulfonamide] | 20 to 3160 | ≤ 1.26
